For experiment [1], the system named is human monocytes injected intratumorally. The experiment is described as follows: Antigen dependent monocyte activation in a mouse tumor model. In kind it is in vivo, NOD SCID mice. The settings on record: 5-20 mg/kg intravenously. On the procedure: Human monocytes were prepared as described above. Trop2^+ MDA-MB-453 cells or Trop2-MiaPaca2 were cultured by standard methods. A TLR8 benzazepine linker payload (LP) was prepared by attaching a MCC (N-maleimidomethyl]cyclohexane-1-carboxylate) linker in place of the mc-vc-PABA linker in Compound-Linker 2.1 to form Compound-Linker 2.22. TROP2-TLR8 benzazepine conjugates were prepared by conjugation of Compound-Linker 2.22 to a TROP2 antibody (sacituzumab) to form a conjugate with an average DAR of about 4.
On Day 1 NOD SCID mice were injected with 5×10^5 Trop2^+ MDA-MB-453 cells or Trop2-MiaPaca2 cells. Seven to ten days later when the tumor size reached about 300 mm^3, the mice were injected intravenously with 5-20 mg/kg of the TROP2-TLR8 benzazepine conjugate or TROP2 antibody alone. Sixteen hours later, 10^6 human monocytes were injected intratumorally. Four to six hours later, the tumors were harvested and digested. Monocytes were identified by staining for cell surface markers and monocyte activation was determined by intracellular staining for IL-6.

For experiment [2], the system named is Human peripheral blood mononuclear cells (PBMC). The experiment is described as follows: PBMC screening assay, TNF-α in supernatant. In kind it is cell-based. The settings on record: 24 hours, TNF-α in supernatant by ELISA or HTRF. On the procedure:
Human peripheral blood mononuclear cells (PBMC) were obtained from BenTek, frozen at 25×10^6 cell/mL in 10% DMSO (Sigma) prepared in fetal bovine serum (Gibco) and stored in liquid nitrogen. For culture PBMC were thawed quickly in a 37° C. water bath and diluted into pre-warmed RPMI 1640 (Lonza) supplemented with 10% fetal bovine serum, 2 mM glutamine, 50 μg/mL penicillin, 50 U/mL streptomycin (all from Gibco) and centrifuged for 5 minutes at 500×g. PBMC were suspended into the growth media described above and cultured at a concentration of 1×10^6 cells per mL at 37° C. in a 5% CO2 incubator.
PBMC were thawed, suspended at a concentration of 1×10^6 cell/mL in growth media and 200 μL was aliquoted into each well of a 96-well plate for a total of 0.2×10^6 cells per well. PBMC were incubated for 16-18 hours at 37° C. in a 5% CO2 humidified incubator. The following day PBMC plates were centrifuged at 500×g for 5 minutes and the growth media was removed. […] TNF-α activity was assessed in the supernatant by ELISA (eBioscience) or HTRF (CisBio) per the manufacturer's instructions. Optical density at 450 nm and 570 nm (ELISA) or luminescence (HTRF) was analyzed using an Envision (Perkin Elmer) plate reader, as shown in Table 5.
In general terms: In an ELISA, binding on a coated surface is turned into a signal by an enzyme label.

Consider three molecules from patent publication US10519131B2, “Benzazepine compounds, conjugates, and uses thereof” (SILVERBACK THERAPEUTICS, INC., priority 2017, dated 2019).

The EC50 is the concentration giving half of the maximal effect. Read a high EC50 as weaker potency.

For the molecule “control antibody: "TROP2 antibody alone" (sacituzumab) in Example 16; elsewhere the unconjugated parental aTROP2 or aHER2 antibody”, the “human monocyte activation (intracellular staining for IL-6)” value in experiment [1] (mice having a TROP2-tumor (MiaPaca2)) and in experiment [1] (mice having a TROP2^+ tumor (MDA-MB-453)) was “did not cause human monocyte activation” throughout.

Take `CCCN(CCC)C(=O)C1=Cc2ccc(C(=O)NC3C[C@@H]3c3ccccc3)cc2N=C(N)C1` (stereo partly shown) [Compound 1.28]: the 50% effective concentration (EC50) in experiment [2] is less than 500 nM.

In experiment [2], `CCCN(CCC)C(=O)C1=Cc2ccc(C(=O)Nc3ccc4c(c3)CN(C(=O)OCc3ccccc3)CC4)cc2N=C(N)C1` [Compound 1.30] displayed an EC50 of less than 500 nM.
